In patent US20050234046A1 (Kalypsys, Inc., priority 2004, published 2005):

Tests used:
Assay in all cases: Transient transfection (transactivation) assay in CV-1 cells, GAL4-PPAR chimera, luciferase reporter
Format in all cases: cell-based
[1] = molecular target: T1, PPAR alpha (Homo sapiens, UniProt Q07869)
T1 construct: expressed in transfected cells; host or cells: CV-1 cells
T1 sequence (Q07869 239-466 limits assumed): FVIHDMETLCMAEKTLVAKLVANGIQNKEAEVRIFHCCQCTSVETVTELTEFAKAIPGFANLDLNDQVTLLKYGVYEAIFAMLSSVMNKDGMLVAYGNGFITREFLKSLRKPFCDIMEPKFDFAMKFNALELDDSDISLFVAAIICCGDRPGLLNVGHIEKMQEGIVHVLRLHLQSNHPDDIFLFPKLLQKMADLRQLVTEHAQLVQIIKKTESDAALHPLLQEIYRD
Description: Compounds may be screened for functional potency in transient transfection assays in CV-1 cells or other cell types for their ability to activate the PPAR subtypes (transactivation assay). A previously established chimeric receptor system was utilized to allow comparison of the relative transcriptional activity of the receptor subtypes on the same synthetic response element and to prevent endogenous receptor activation from complicating the interpretation of results. See, for example; Lehmann, J. M.; Moore, L. B.; Smith-Oliver, T. A; Wilkinson, W. O.; Willson, T. M.; Kliewer, S. A., An antidiabetic thiazolidinedione is a high affinity ligand for peroxisome proliferatur-activated receptor γ (PPARγ), J. Biol. Chem., 1995, 270, 12953-6. The ligand binding domains for murine and human PPAR-alpha, PPAR-gamma, and PPAR-delta are each fused to the yeast transcription factor GAL4 DNA binding domain. CV-1 cells were transiently transfected with expression vectors for the respective PPAR chimera along with a reporter construct containing four or five copies of the GAL4 DNA binding site driving expression of luciferase. After 8-16 h, the cells are replated into multi-well assay plates and the media is exchanged to phenol-red free DME medium supplemented with 5% delipidated calf serum. 4 hours after replating, cells were treated with either compounds or 1% DMSO for 20-24 hours. Luciferase activity was then assayed with Britelite (Perkin Elmer) following the manufacturer's protocol and measured with either the Perkin Elmer Viewlux or Molecular Devices Acquest Xsee, for example, Kliewer, S. A., et. al. Cell 1995, 83, 813-819). Rosiglitazone is used as a positive control in the hPPAR-γ assay. Wy-14643 and GW7647 is used as a positive control in the hPPAR-α assay. GW501516 is used as the positive control in the hPPAR-δ assay.
Compounds of Examples 1-233 were assayed to measure their biological activity with respect to their EC50 values and efficacy for modulating PPAR-alpha, PPAR-gamma, and PPAR-delta as set forth in Table 3.

[2] = molecular target: T2, PPAR delta (Homo sapiens, UniProt Q03181)
T2 construct: expressed in transfected cells; host or cells: CV-1 cells
T2 sequence (Q03181 211-439 limits assumed): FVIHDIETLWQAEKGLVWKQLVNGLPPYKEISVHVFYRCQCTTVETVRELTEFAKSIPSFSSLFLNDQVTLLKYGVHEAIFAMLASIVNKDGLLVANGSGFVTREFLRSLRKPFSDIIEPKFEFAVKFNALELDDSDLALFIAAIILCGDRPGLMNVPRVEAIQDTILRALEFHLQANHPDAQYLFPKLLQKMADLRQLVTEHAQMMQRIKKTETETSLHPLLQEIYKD

[3] = molecular target: T3, PPAR gamma (Homo sapiens, UniProt P37231)
T3 construct: expressed in transfected cells; host or cells: CV-1 cells
T3 sequence (P37231 238-503 limits assumed): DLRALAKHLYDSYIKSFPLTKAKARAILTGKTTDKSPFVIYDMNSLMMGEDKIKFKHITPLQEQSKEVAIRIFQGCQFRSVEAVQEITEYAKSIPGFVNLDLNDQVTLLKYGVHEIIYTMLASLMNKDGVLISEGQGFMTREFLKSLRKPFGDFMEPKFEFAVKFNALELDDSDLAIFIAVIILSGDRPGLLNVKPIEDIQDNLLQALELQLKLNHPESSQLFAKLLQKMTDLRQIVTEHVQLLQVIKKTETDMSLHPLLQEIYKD

| SMILES | EC50 [1] [µM] | EC50 [2] [µM] | EC50 [3] [µM] |
| --- | --- | --- | --- |
| Cc1ccc(S(=O)(=O)N2C[C@H](C)N(c3ccc(C(F)(F)F)cn3)C[C@H]2C)cc1CC(=O)O (mixture of isomers) [Example 21, SR and RS-{5-[2,5-Dimethyl-4-(5-trifluoromethyl-pyridin-2-yl)-piperazine-1-sulfonyl]-2-methyl-phenyl}-acetic acid] | > 100 | < 5 | 5 to 100 |
| Cc1cc(CC(=O)O)cc(S(=O)(=O)N2CCN(c3ccc(C(F)(F)F)cn3)[C@@H](C)[C@H]2C)c1 (mixture of isomers) [Example 106, RS and SR-{3-[2,3-Dimethyl-4-(5-trifluoromethyl-pyridin-2-yl)-piperazine-1-sulfonyl]-5-methyl-phenyl}-acetic acid] | > 100 | < 5 | > 100 |
| C[C@@H]1[C@H](C)N(c2ccc(C(F)(F)F)cn2)CCN1S(=O)(=O)c1cccc(CC(=O)O)c1 (racemic) [Example 105, RS and SR-{3-[2,3-Dimethyl-4-(S-trifluoromethyl-pyridin-2-yl)-piperazine-1-sulfonyl]-phenyl}-acetic acid] | > 100 | < 5 | < 5 |
| Cc1ccc(CC(=O)O)cc1S(=O)(=O)N1CCC(c2ccc(Cl)cc2)CC1 [Example 1] | > 100 | < 5 | > 100 |
| Cc1ccc(S(=O)(=O)N2CCC(c3ccc(Cl)cc3)CC2)cc1CC(=O)O [Example 2, {5-[4-(4-Chlorophenyl)-piperidine-1-sulfonyl]-2-methyl-phenyl}-acetic acid] | > 100 | 5 to 100 | > 100 |
| Cc1ccc(S(=O)(=O)N2CCCN(c3ccc(C(F)(F)F)cc3)CC2)cc1CC(=O)O [Example 5, {2-Methyl-5-[4-(4-trifluoromethyl-phenyl)-[1,4]diazepane-1-sulfonyl]-phenyl}-acetic acid] | > 100 | < 5 | 5 to 100 |
| Cc1ccc(S(=O)(=O)N2CCCN(c3ccc(C(F)(F)F)cn3)CC2)cc1CC(=O)O [Example 8, {2-Methyl-5-[4-(5-trifluoromethyl-pyridin-2-yl)-[1,4]diazepane-1-sulfonyl]-phenyl}-acetic acid] | 5 to 100 | < 5 | < 5 |
| Cc1ccc(S(=O)(=O)N2C[C@@H]3C[C@H]2CN3c2cccc(F)c2)cc1CC(=O)O [Example 10, S,S-{5-[4-(3-Fluorophenyl)-2,5-diaza-bicyclo[2.2.1]heptane-1-sulfonyl]-2-methyl-phenyl}acetic acid] | > 100 | 5 to 100 | > 100 |
| Cc1ccc(S(=O)(=O)N2C[C@@H]3C[C@H]2CN3c2ccc(F)cc2)cc1CC(=O)O [Example 11] | > 100 | 5 to 100 | > 100 |
| Cc1ccc(S(=O)(=O)N2CCCN(c3ncccc3C(F)(F)F)CC2)cc1CC(=O)O [Example 12, {2-Methyl-5-[4-(3-trifluoromethyl-pyridin-2-yl)-[1,4]diazepane-1-sulfonyl]-phenyl}-acetic acid] | > 100 | 5 to 100 | 5 to 100 |
| Cc1ccc(S(=O)(=O)N2CCCN(c3ccncc3)CC2)cc1CC(=O)O [Example 13] | > 100 | 5 to 100 | > 100 |
| Cc1ccc(S(=O)(=O)N2CCCC(c3ccc(C(F)(F)F)cc3)C2)cc1CC(=O)O (stereo not drawn) [Example 15, {2-Methyl-5-[3-(4-trifluoromethyl-phenyl)-piperidine-1-sulfonyl]-phenyl}-acetic acid] | 5 to 100 | < 5 | 5 to 100 |
| Cc1ccc(S(=O)(=O)N2CCCC(c3cccc(C(F)(F)F)c3)C2)cc1CC(=O)O (stereo not drawn) [Example 16, {2-Methyl-5-[3-(3-trifluoromethyl-phenyl)-piperidine-1-sulfonyl]-phenyl}-acetic acid] | > 100 | 5 to 100 | < 5 |
| Cc1ccc(S(=O)(=O)N2CCN(c3nc4ccccc4o3)CC2)cc1CC(=O)O [Example 17, [5-(4-Benzoxazol-2-yl-piperazine-1-sulfonyl)-2-methyl-phenyl]-acetic acid] | 5 to 100 | < 5 | 5 to 100 |
| Cc1ccc(S(=O)(=O)N2CCN(c3ccc(C(F)(F)F)cn3)CC2C)cc1CC(=O)O (stereo not drawn) [Example 19] | 5 to 100 | < 5 | 5 to 100 |
| Cc1ccc(S(=O)(=O)N2[C@H](C)CN(c3ccc(C(F)(F)F)cn3)C[C@@H]2C)cc1CC(=O)O [Example 20, {5-[2,6-Dimethyl-4-(5-trifluoromethyl-pyridin-2-yl)-piperazine-1-sulfonyl]-2-methyl-phenyl}-acetic acid] | > 100 | < 5 | > 100 |
| Cc1cc(CC(=O)O)cc(S(=O)(=O)N2CCN(c3ncc(C(F)(F)F)cc3Cl)CC2)c1 [Example 22, {5-Methyl-3-[4-(3-chloro-5-trifluoromethyl-pyridin-2-yl)-piperazine-1-sulfonyl]-phenyl)-acetic acid] | 5 to 100 | < 5 | < 5 |

The next lines start with the values.

| EC50 [1] [µM] | EC50 [2] [µM] | EC50 [3] [µM] | SMILES |
| --- | --- | --- | --- |
| 5 to 100 | < 5 | < 5 | Cc1ccc(S(=O)(=O)N2CCN(c3ccc(C(F)(F)F)cn3)[C@@H](C)[C@H]2C)cc1CC(=O)O (mixture of isomers) [Example 104, RS and SR-{5-[2,3-Dimethyl-4-(5-trifluoromethyl-pyridin-2-yl)-piperazine-1-sulfonyl]-2-methyl-phenyl}-acetic acid] |
| 5 to 100 | < 5 | < 5 | Cc1ccc(S(=O)(=O)N2CCN(c3ccc(C(F)(F)F)cn3)[C@H](C)C2)cc1CC(=O)O (single isomer, unassigned) [Example 69] |
| 5 to 100 | < 5 | 5 to 100 | O=C(O)Cc1cccc(S(=O)(=O)N2CCN(c3ccc(C(F)(F)F)cc3)CC2)c1 [Example 3, {3-[4-(4-Trifluoromethyl-phenyl)-piperazine-1-sulfonyl]-phenyl}-acetic acid] |
| 5 to 100 | < 5 | 5 to 100 | O=C(O)Cc1cccc(S(=O)(=O)N2CCN(c3ccc(C(F)(F)F)cn3)CC2)c1 [Example 4, {3-[4-(5-Trifluoromethyl-pyridin-2-yl)-piperazine-1-sulfonyl]-phenyl}-acetic acid] |
| 5 to 100 | < 5 | 5 to 100 | Cc1ccc(S(=O)(=O)N2CCN(c3ccc(C(F)(F)F)cn3)CC2C(C)C)cc1CC(=O)O (stereo not drawn) [Example 6, {5-[2-Isopropyl-4-(5-trifluoromethyl-pyridin-2-yl)-piperazine-1-sulfonyl]-2-methyl-phenyl}-acetic acid] |
| 5 to 100 | < 5 | 5 to 100 | CCC1CN(c2ccc(C(F)(F)F)cn2)CCN1S(=O)(=O)c1ccc(C)c(CC(=O)O)c1 (stereo not drawn) [Example 7, {5-[2-Ethyl-4-(5-trifluoromethyl-pyridin-2-yl)-piperazine-1-sulfonyl]-2-methyl-phenyl)-acetic acid] |
| < 5 | < 5 | < 5 | Cc1ccc(S(=O)(=O)N2CCCN(c3ncc(C(F)(F)F)cc3Cl)CC2)cc1CC(=O)O [Example 9] |
| < 5 | < 5 | < 5 | Cc1ccc(S(=O)(=O)N2CCN(c3nc4ccccc4s3)CC2)cc1CC(=O)O [Example 18, [5-(4-Benzothiazol-2-yl-piperazine-1-sulfonyl)-2-methyl-phenyl]-acetic acid] |
